These compounds were tested against T1, ATPase family AAA domain-containing protein 2 (Homo sapiens, UniProt Q6PL18) (assay: Binding affinity to recombinant human ATAD2 (982 to 1108 amino acids) bromodomain […] at methyl groups of leucine, valine, isoleucine, methionine expressed in Escherichia coli BL21 (DE3) by NMR titration).
T1 sequence (Q6PL18 whole entry): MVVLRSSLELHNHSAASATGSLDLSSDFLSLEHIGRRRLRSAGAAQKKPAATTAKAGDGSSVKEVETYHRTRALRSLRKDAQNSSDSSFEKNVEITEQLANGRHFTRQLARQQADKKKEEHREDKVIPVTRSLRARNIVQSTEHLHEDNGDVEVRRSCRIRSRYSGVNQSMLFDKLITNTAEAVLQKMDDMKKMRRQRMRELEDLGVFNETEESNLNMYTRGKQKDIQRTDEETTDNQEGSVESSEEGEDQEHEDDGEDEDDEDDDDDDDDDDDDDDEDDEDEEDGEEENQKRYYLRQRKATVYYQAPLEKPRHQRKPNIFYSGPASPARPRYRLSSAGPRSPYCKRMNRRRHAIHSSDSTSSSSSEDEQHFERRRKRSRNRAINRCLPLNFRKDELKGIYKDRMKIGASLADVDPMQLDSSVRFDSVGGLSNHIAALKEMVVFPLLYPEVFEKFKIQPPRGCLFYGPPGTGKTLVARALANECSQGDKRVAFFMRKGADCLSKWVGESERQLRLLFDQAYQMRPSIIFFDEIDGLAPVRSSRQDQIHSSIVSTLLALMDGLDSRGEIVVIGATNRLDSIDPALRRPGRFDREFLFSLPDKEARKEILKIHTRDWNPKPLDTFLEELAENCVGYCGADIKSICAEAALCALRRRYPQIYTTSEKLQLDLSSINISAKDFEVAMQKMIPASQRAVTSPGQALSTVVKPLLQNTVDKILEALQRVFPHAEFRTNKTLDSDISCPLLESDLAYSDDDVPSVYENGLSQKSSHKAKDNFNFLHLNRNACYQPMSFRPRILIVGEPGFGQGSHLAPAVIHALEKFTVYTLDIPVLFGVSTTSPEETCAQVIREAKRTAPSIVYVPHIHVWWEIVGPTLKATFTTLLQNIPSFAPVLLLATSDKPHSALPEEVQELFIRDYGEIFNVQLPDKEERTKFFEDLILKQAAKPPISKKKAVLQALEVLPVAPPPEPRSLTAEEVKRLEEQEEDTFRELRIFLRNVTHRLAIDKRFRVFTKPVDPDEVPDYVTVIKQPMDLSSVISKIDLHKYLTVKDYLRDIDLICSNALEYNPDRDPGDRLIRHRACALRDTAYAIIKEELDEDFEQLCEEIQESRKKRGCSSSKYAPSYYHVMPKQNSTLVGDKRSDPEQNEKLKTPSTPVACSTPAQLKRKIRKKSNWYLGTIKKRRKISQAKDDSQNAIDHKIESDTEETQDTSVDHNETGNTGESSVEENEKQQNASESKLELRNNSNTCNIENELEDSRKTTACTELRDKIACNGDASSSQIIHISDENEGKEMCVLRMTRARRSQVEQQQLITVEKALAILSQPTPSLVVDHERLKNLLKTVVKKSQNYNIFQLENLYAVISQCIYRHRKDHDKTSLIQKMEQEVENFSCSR

Row | Compound | Kd [mM]
1 | Cc1cn([C@@H]2O[C@H](CN)[C@@H](O)[C@H]2O)c(=O)[nH]c1=O | 17
2 | Cc1cn([C@H]2C[C@H](O)[C@@H](CO)O2)c(=O)[nH]c1=O [DOXRIBTIMINE] | 10
3 | Cc1c[nH]c(=O)[nH]c1=O [THYMINE] | 10

Further lines, results first:

Row | Kd [mM] | Compound
4 | 21 | Cc1cn([C@@H]2O[C@H](CO)[C@@H](O)[C@H]2O)c(=O)[nH]c1=O
5 | 18 | Cc1cn([C@H]2CC[C@@H](CO)O2)c(=O)[nH]c1=O
